The text below walks through data of patent publication US20120225862A1, “HETEROARYL BENZAMIDES, COMPOSITIONS AND METHODS OF USE” (AUCKLAND UNIVSERVICES LIMITED, priority 2009, published 2012).

In one experiment the target is T1, Plk3 (Homo sapiens, UniProt Q9H4B4).
T1 construct: purchased Millipore (KinaseProfiler service)
The experiment is described as follows: In vitro kinase activity (Millipore KinaseProfiler): Plk3. Type of experiment: biochemical. The conditions noted are these: no head or unit printed. On the procedure:
(§1) All cells were grown in DMEM+10% FCS. ACHN and ACHN shVHL were a kind gift from George V. Thomas (UCLA). HIF overexpressing clones were described previously. Transfection of RNA oligos were performed with DnarmaFECT Reagent 1 (Dharmcon), according to manufacturer's directions. ON-TARGETplus SMART pools against HIF-1β/ARNT were purchased from Dharmacon. Glut1 was detected with anti-GLUT1 antibody from NeoMarkers/LabVision/Fisher. Pyruvate/lactate levels and hexokinase activity were both measured by fluorometric assay (BioVision and Sigma-Aldrich, respectively). ATP levels were measured by bioluminescence assay (ATP Determination Kit from Molecular Probes/Invitrogen). In vitro kinase activities were performed by Millipore KinaseProfiler. Affi-Gel 10 (BioRad) activated affinity media was coupled to analogs to generate immobilized affinity linkers.
(§2) We next wanted to investigate the differential glucose uptake between RCCs with and without VHL treated with compound 47 that subsequently lead to the selective death of VHL-deficient cells. We first examined the message levels of the two main glucose transporters, GLUT1 and GLUT2 by quantitative real-time PCR. GLUT1 is an inducible, high-affinity glucose transporter, while GLUT2 is the glucose transporter responsible for basal glucose uptake. […] Cells deficient in VHL had very low levels of GLUT2 that could barely be detected (FIG. 3J). […]

For a further experiment, the system named is 786-O. The experiment is described as follows: 3H-2-deoxyglucose uptake, 786-O. The note with it: 5 μM, FIG. 8B. Type of experiment: cell-based, human. The procedure:
One hundred thousand cells were plated into 6-well plates. The following day, the cells were treated with vehicle or drug and incubated for the indicated time. Cells were washed twice in phosphate buffered saline and low glucose media was added for 30 minutes. Cells were then incubated with 0.5 microCi of tritiated-2-deoxyglucose and incubated for an hour at 37° C. Cells were washed twice in PBS and then lysed in 0.2 N NaOH and 0.2% SDS. Lysates were transferred to scintillation tubes with scintillation fluid and quantified by scintillation counter.
One hundred thousand cells were plated per well in a six-well plate. The next day, cells were treated with the indicated concentration of drug and incubated for the indicated time. Cells were then washed twice with phosphate-buffered saline, incubated in low-glucose medium for 30 minutes, and ^3H-2-deoxyglucose (0.5 μCi) was added in 1 ml of glucose-free media for an additional hour. Cells were washed twice in PBS and lysed (0.2 N NaOH and 0.2% sodium dodecyl sulfate). Glucose uptake was quantified with a scintillation counter.

The next experiment deals with hexokinase. The experiment is described as follows: Hexokinase activity in whole cell lysates, RCC4. The conditions noted are these: 5 μM. Type of experiment: cell-based, human. On the procedure: as §1
We then examined whether this decrease in glycolysis in response to compound 47 was due to a decrease in glucose uptake or whether compound 47 inhibited a particular glycolytic enzyme. To test this, we measured glucose uptake using 2-deoxy-D-[^3H] glucose, a non-hydrolyzable, radioactive glucose analog, following two days of treatment with compound 47. […] RCC4/VHL cells had lower baseline levels of glucose uptake compared to RCC4 cells and were unaffected by treatment with compound 47. […]

The target of another experiment is T2, Axl (Homo sapiens, UniProt P30530).
T2 construct: purchased Millipore (KinaseProfiler service)
T2 sequence (P30530 26-894, species assumed): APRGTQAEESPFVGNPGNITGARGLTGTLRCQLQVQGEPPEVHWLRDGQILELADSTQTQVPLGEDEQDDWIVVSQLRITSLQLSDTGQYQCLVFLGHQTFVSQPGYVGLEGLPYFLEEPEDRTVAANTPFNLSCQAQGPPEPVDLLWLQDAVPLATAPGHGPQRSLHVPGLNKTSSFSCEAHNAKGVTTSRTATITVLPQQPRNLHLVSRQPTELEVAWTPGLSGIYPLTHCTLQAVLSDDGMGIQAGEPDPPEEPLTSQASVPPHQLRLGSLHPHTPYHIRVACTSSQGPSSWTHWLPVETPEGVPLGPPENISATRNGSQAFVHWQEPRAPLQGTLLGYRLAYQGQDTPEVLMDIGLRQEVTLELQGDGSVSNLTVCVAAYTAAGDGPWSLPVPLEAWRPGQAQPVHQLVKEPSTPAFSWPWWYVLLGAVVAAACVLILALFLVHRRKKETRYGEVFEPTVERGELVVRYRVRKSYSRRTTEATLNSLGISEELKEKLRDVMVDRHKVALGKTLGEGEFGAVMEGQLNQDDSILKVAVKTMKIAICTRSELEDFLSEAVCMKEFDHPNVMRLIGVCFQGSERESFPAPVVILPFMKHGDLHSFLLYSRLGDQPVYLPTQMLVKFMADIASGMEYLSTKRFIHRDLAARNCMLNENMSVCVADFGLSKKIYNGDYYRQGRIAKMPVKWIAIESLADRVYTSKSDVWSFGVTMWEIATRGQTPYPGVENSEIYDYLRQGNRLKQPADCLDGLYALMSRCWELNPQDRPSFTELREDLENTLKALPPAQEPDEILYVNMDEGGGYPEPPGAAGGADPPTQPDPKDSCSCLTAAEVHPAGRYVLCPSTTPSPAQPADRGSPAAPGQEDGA
The experiment is described as follows: In vitro kinase activity (Millipore KinaseProfiler): Axl. Format: biochemical. The note with it: no head or unit printed. On the procedure: as §1, §2

The target in a further experiment is T3, JAK2 (Homo sapiens, UniProt O60674).
T3 construct: purchased Millipore (KinaseProfiler service)
T3 sequence (O60674 whole entry, species assumed): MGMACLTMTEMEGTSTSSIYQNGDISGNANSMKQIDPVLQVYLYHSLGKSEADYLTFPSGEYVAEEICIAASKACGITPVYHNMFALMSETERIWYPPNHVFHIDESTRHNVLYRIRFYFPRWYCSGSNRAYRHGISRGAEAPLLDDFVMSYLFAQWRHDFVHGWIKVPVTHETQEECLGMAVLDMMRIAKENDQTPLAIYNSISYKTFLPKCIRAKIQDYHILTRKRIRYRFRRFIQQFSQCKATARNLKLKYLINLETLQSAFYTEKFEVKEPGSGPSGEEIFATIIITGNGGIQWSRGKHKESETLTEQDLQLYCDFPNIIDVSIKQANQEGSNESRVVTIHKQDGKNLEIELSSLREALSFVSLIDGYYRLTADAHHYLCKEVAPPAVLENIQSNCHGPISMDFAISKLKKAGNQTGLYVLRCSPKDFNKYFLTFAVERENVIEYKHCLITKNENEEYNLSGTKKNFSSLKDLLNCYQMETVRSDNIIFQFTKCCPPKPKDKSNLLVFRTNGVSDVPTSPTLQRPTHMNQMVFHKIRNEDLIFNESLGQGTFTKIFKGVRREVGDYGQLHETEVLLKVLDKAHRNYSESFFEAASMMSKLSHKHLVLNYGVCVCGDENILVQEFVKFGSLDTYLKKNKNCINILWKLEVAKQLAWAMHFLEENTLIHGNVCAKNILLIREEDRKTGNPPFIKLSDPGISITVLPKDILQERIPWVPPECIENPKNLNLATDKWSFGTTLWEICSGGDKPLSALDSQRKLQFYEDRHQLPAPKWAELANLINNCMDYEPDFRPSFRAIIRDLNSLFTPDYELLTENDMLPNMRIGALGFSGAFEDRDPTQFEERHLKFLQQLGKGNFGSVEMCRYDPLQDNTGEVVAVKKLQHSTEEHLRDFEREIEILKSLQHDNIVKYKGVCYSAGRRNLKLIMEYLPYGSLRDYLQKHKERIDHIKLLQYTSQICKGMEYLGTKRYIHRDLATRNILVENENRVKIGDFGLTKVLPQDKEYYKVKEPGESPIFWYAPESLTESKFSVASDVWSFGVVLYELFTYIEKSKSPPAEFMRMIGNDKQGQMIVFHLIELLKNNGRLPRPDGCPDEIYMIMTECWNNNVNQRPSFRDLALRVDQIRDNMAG
The experiment is described as follows: In vitro kinase activity (Millipore KinaseProfiler): JAK2. The conditions noted are these: no head or unit printed. Format: biochemical. The procedure:
as §1, §2

For the next experiment, the system named is RCC4/VHL. The experiment is described as follows: Clonogenic survival, RCC4/VHL. Format: cell-based, human. The note with it: RCC4/VHL (wild-type VHL), 5 μM, 10 days. The procedure: Three hundred cells were plated into 60-mm tissue culture dishes in DMEM. The next day, cells were treated with vehicle or drug and were further incubated for an additional 10 days. After 10 days, the media was removed and colonies were fixed and stained in 95% ethanol and 0.1% crystal violet for 15 minutes. The stain was removed and plates were washed in deionized water. Colonies were quantified. All conditions were measured in triplicate and all experiments were performed in triplicate.
For 2,3-bis[2-methoxy-4-nitro-5-sulfophenyl]-2H-tetrazolium-5-carboxanilide (XTT) assays, five thousand cells were plated in 96-well plates. The next day, vehicle (DMSO) or drug was added by serial dilution. Four days later, media were aspirated, XTT solution (0.3 mg/ml of XTT (Sigma), 2.65 mg/ml N-methyl dibenxopyrazine methyl sulfate (Simga) in phenol red-free media) was added, and the plates were incubated at 37° C. for 1-2 hours. Metabolism of XTT was quantified by measuring the absorbance at 450 nm. IC50s were calculated using linear interpolation. For clonogenic survival assays, three hundred cells were plated per 60 mm tissue culture dish. The cells were allowed to attach overnight and then treated with vehicle or drug for 14 days. […] All conditions were measured in triplicate and each experiment was done in duplicate or triplicate. […] Live and dead cells were counted on a hematocytometer.

T1 sequence (Q9H4B4 whole entry, species assumed): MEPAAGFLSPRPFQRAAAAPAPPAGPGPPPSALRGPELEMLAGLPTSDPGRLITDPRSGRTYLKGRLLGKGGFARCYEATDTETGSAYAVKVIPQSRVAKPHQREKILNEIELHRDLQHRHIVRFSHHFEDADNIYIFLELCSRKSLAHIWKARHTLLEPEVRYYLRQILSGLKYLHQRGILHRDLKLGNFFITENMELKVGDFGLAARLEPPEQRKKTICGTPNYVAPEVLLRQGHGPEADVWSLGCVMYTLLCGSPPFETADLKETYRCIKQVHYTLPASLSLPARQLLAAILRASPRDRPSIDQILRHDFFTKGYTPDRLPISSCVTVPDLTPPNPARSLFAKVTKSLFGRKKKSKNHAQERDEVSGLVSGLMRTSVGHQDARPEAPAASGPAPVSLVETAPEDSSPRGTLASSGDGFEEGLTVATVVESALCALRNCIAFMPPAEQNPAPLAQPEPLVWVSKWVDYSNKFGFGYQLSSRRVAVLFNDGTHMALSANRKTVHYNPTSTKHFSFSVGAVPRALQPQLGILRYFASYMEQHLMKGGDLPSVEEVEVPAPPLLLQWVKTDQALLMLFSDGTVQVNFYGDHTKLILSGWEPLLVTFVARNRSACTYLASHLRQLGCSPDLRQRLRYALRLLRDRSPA

At Plk3, `CC(C)(C)c1ccc(S(=O)(=O)NCc2ccc(C(=O)Nc3cccnc3)cc2)cc1` [Example 38, 4-((4-tert-Butylphenylsulfonamido)methyl)-N-(pyridin-3-yl)benzamide] returned a Plk3 kinase activity of 104. Moreover, the “glucose uptake in 786-O cells” value in the experiment with 786-O is “impaired glucose uptake”. In addition, in the experiment on hexokinase, the “hexokinase activity in RCC4” value was “inhibited by compound 47 only after three days of treatment”. For the same molecule, the Axl kinase activity at Axl worked out at 87. The JAK2 kinase activity on JAK2 was determined as 113. Besides, the “clonogenic survival of RCC4/VHL” value in the experiment with RCC4/VHL is listed as “relatively unaffected”.
